# Measurements from patent US20150299120A1, “Spirohydantoin compounds and their use as selective androgen receptor modulators” (NOVARTIS AG, priority 2012, published 2015).
# pEC50: −log10 of the molar value.
# Target: T1, androgen receptor (AR) (Homo sapiens, UniProt P10275)
# T1 construct: transfecting C2C12 cells with a plasmid containing full-length AR; expressed in transfected cells; host or cells: mouse myoblastic C2C12 cells (ATCC CRL-1772), transiently transfected with AR-FL in pcDNA 3.1(+)
# T1 sequence (P10275 1-920): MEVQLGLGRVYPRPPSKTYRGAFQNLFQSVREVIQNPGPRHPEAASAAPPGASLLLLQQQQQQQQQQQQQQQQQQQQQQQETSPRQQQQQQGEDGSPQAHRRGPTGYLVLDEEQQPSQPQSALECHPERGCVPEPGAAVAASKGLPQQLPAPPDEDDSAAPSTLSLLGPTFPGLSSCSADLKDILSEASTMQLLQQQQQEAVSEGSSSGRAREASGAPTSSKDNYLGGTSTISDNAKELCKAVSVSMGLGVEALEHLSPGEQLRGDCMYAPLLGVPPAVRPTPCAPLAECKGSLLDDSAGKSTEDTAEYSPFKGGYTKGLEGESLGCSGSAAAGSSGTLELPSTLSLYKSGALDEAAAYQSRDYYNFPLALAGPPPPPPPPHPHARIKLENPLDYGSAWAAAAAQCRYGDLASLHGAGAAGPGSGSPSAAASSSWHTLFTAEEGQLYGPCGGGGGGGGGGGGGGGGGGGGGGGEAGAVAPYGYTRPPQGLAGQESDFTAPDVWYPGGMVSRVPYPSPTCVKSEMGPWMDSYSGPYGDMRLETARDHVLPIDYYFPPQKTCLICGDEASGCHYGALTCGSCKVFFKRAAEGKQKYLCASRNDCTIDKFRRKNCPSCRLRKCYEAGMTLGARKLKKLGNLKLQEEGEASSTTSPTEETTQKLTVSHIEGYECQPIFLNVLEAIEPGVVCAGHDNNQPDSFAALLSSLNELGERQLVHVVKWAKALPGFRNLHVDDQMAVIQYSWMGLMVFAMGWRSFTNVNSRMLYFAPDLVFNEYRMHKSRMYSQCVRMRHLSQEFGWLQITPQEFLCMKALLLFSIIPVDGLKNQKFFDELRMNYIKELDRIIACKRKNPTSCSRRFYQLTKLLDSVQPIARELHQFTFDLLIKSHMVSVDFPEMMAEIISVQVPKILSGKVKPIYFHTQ
# Assay: Test 1: androgen receptor transcriptional activation (2XIDR17-luciferase) assay in transfected C2C12 cells
# Type: cell-based
# Settings: C2C12, C2C12 cells; compound at 100 nM; relative to 1 μM DHT; read-out: % Biological activity (C2C12 cell) 100 nM
# Procedure: A suitable assay to determine the ability of a ligand to transcriptionally activate androgen receptor (AR) is carried out using mouse myoblastic C2C12 cells. The assay involves transfecting C2C12 cells with a plasmid containing full-length AR along with an AR response element linked to luciferase (2XIDR17). The luminescence read-out at the end of the assay is measured using Victor 3 and is a direct measure of the transcriptional activity. The assay has been validated using the reference compound, BMS-564929, for which EC50 values have been reported in a similar set-up.
# C2C12 cells were obtained from ATCC (Cat #CRL-1772) and maintained in DMEM modified to contain 4 mM L-glutamine, 4.5 g/L glucose, 1 mM sodium pyruvate and 1.5 g/L sodium bicarbonate and 10% FBS.
# AR-FL in pcDNA 3.1(+) and 2XIDR17 in pGL4.26 plasmids prepared using Genelute plasmid miniprep kit from Sigma Cat #PLED35 Steadyglow Luciferase assay system Promega Cat #E2550
# • C2C12 cells were seeded in a 96-well plate in DMEM (Dulbecco's Modified Eagle Medium) without phenol red and containing 10% CS-FBS (Charcoal-stripped Fetal Bovine Serum) at 8000 cells/well. • The next day, cells were transfected with an equimolar ratio of (Androgen Receptor-Full length) AR-FL and 2XIDR17-Luciferase at a total plasmid concentration of 200 ng/well using Lipofectamine 2000 following manufacturer's protocol. • For the transfection, 83 ng of AR-FL and 117 ng of 2XIDR17-Luciferase were in 12.5 μl of OptiMEM—Mix A. 0.4 μl of Lipofectamine 2000 was added to 12.5 μl of OptiMEM and incubated for 5 min at room temperature—Mix B. The two mixes A and B were mixed and incubated at room temperature for an additional fifteen minutes. An additional 50 μl of OptiMEM was added, gently mixed and this mixture was added to the cells in the 96-well plate. The above quantities are requirements per well of a 96-well plate. Master mixes were made for the entire plate, with proportional quantity of reagents being used. • 5 h after transfection, compounds were added to the wells in DMEM without phenol red and containing 10% CS-FBS, maintaining a final DMSO concentration of 0.5%. A typical dose response curve starts at 10 μM and includes a 7-point, log dilution, done in triplicates. • After overnight incubation with the compounds, 100 ul of working solution of Steadyglow reagent was added to the wells. • The plates were placed in a shaker for 15 min at the end of which the lysate containing luciferase was transferred to a white flat-bottom plate and read under a luminescence setting in Victor. • Background subtracted counts (Luminescence from DMSO control wells is considered the background) are used to calculate percentage activity, expressed relative to activity with 1 μM (Dihydrotestosterone) DHT (at least two sets of triplicates for 1 μM DHT are included per plate).
# The EC50 curves for the compounds for 8 compound concentrations were fitted by the respective function using non-linear least-squares regression in Graphpad Prism 4.0 (Graphpad Software, San Diego, Calif., USA).
row,Structure (SMILES),percent activity relative to 1 μM DHT at a single concentration at 0.1 µM
1,"Cc1c(N2C(=O)N(CC3CCOCC3)C3(CCCC3)C2=O)ccc(C#N)c1Cl [2-chloro-4-(2,4-dioxo-1-((tetrahydro-2H-pyran-4-yl)methyl)-1,3-diazaspiro[4.4]nonan-3-yl)-3-methylbenzonitrile]",5%

# Same assay, conditions: C2C12, C2C12 cells; compound at 5 μM; relative to 1 μM DHT; read-out: % Biological activity (C2C12 cell) 5 μM
row,Structure (SMILES),percent activity relative to 1 μM DHT at a single concentration at 5 µM
1,"Cc1c(N2C(=O)N(CC3CCOCC3)C3(CCCC3)C2=O)ccc(C#N)c1Cl [2-chloro-4-(2,4-dioxo-1-((tetrahydro-2H-pyran-4-yl)methyl)-1,3-diazaspiro[4.4]nonan-3-yl)-3-methylbenzonitrile]",12%

# Same assay, conditions: C2C12, C2C12 cells; percentage activity relative to 1 μM DHT; read-out: Biological activity (C2C12 cell) Emax % (converted)
row,Structure (SMILES),Emax
1,Cc1c(N2C(=O)N(C)C3(CCCC3O)C2=O)ccc(C#N)c1Cl (stereo not drawn) [1.0],80%
2,CCN1C(=O)N(c2ccc(C#N)c(Cl)c2C)C(=O)C12CCCC2O (stereo not drawn) [1.3],79%
3,Cc1c(N2C(=O)N(C)C3(CCCC3F)C2=O)ccc(C#N)c1Cl (stereo not drawn) [1.4],60%
4,Cc1c(N2C(=O)N(C)C3(C=CCC3)C2=O)ccc(C#N)c1Cl (stereo not drawn) [1.5],66%
5,Cc1c(N2C(=O)N(C)C3(CCCC3C)C2=O)ccc(C#N)c1Cl (stereo not drawn) [1.7],91%
6,Cc1c(N2CC3(CCCC3O)N(C)C2=O)ccc(C#N)c1Cl (stereo not drawn) [2.0],76%
7,Cc1c(N2C(=O)N(C)C3(CCC(F)C3)C2=O)ccc(C#N)c1Cl (stereo not drawn) [6.1],99%
8,Cc1c(N2C(=O)N(C)C3(CCOC3)C2=O)ccc(C#N)c1Cl (stereo not drawn) [10.0],60%
9,"COC1N(c2ccc(C#N)c(Cl)c2C)C(=O)OC12CCCC2O (stereo not drawn) [Example 4.1, 2-chloro-4-(6-hydroxy-4-methoxy-2-oxo-1-oxa-3-azaspiro[4.4]nonan-3-yl)-3-methylbenzonitrile]",40%

# Same assay, conditions: C2C12 cells; read-out: EC50 value in test 1
row,Structure (SMILES),pEC50
1,"Cc1c(N2C(=O)N(CCN3CCOCC3)C3(CCCC3)C2=O)ccc(C#N)c1Cl [2-chloro-3-methyl-4-(1-(2-morpholinoethyl)-2,4-dioxo-1,3-diazaspiro[4.4]nonan-3-yl)benzonitrile]",< 4.52
2,"CCOCCN1C(=O)N(c2ccc(C#N)c(Cl)c2C)C(=O)C12CCCC2 [2-chloro-4-(1-(2-ethoxyethyl)-2,4-dioxo-1,3-diazaspiro[4.4]nonan-3-yl)-3-methylbenzonitrile]",< 4.52
3,"Cc1c(N2C(=O)N(CCOCC(C)C)C3(CCCC3)C2=O)ccc(C#N)c1Cl [2-chloro-4-(1-(2-isobutoxyethyl)-2,4-dioxo-1,3-diazaspiro[4.4]nonan-3-yl)-3-methylbenzonitrile]",< 4.52
4,"Cc1c(N2C(=O)N(CCOC(C)C)C3(CCCC3)C2=O)ccc(C#N)c1Cl [2-chloro-4-(1-(2-isopropoxyethyl)-2,4-dioxo-1,3-diazaspiro[4.4]nonan-3-yl)-3-methylbenzonitrile]",< 4.52
5,"Cc1c(N2C(=O)N(CCC3CCOCC3)C3(CCCC3)C2=O)ccc(C#N)c1Cl [2-chloro-4-(2,4-dioxo-1-(2-(tetrahydro-2H-pyran-4-yl)ethyl)-1,3-diazaspiro[4.4]nonan-3-yl)-3-methylbenzonitrile]",< 4.52
6,"Cc1c(N2C(=O)N(C)C3(CCCC3)C2O)ccc(C#N)c1Cl (stereo not drawn) [2-chloro-4-(4-hydroxy-1-methyl-2-oxo-1,3-diazaspiro[4.4]nonan-3-yl)-3-methylbenzonitrile]",< 4.52
7,"COC1N(c2ccc(C#N)c(Cl)c2C)C(=O)N(C)C12CCCC2 (stereo not drawn) [2-chloro-4-(4-methoxy-1-methyl-2-oxo-1,3-diazaspiro[4.4]nonan-3-yl)-3-methylbenzonitrile]",< 4.52
8,"Cc1c(N2CC3(CCCC3F)N(C)C2=O)ccc(C#N)c1Cl (stereo not drawn) [2-chloro-4-(6-fluoro-1-methyl-2-oxo-1,3-diazaspiro[4.4]nonan-3-yl)-3-methylbenzonitrile]",< 4.52
9,Cc1c(N2CC3(CCCC3F)OC2=O)ccc(C#N)c1Cl (stereo not drawn) [2-chloro-4-(6-fluoro-2-oxo-1-oxa-3-azaspiro[4.4]nonan-3-yl)-3-methylbenzonitrile],< 4.52
10,Cc1c(N2CC3(CCCC3O)OC2=O)ccc(C#N)c1Cl (stereo not drawn) [2-chloro-4-(6-hydroxy-2-oxo-1-oxa-3-azaspiro[4.4]nonan-3-yl)-3-methylbenzonitrile],< 4.52

# Same assay, conditions: mouse myoblastic C2C12 cells transfected with full-length AR and 2XIDR17-luciferase; read-out: Biological activity (C2C12 cell) EC50
row,Structure (SMILES),pEC50
1,"Cc1c(N2C(=O)N(C)[C@]3(CCC[C@@H]3F)C2=O)ccc(C#N)c1Cl [1.4(iv), 2-chloro-4-((5R,6S)-6-fluoro-1-methyl-2,4-dioxo-1,3-diazaspiro[4.4]nonan-3-yl)-3-methylbenzonitrile]",9.10
2,Cc1c(N2CC3(CCCC3O)N(C)C2=O)ccc(C#N)c1Cl (stereo not drawn) [2.0],5.54
3,"COC1N(c2ccc(C#N)c(Cl)c2C)C(=O)OC12CCCC2O (stereo not drawn) [Example 4.1, 2-chloro-4-(6-hydroxy-4-methoxy-2-oxo-1-oxa-3-azaspiro[4.4]nonan-3-yl)-3-methylbenzonitrile]",5.59
